Reference: US20230034248A1, “PLANT STOMATA OPENING PROMOTING AGENT” (OAT Agrio Co., Ltd., priority 2019, published 2023)

System: tomato seedlings
Assay: Abscisic acid-induced stomatal closure inhibitory activity, second evaluation (foliar spray, ratio of open stomata)
Assay type: in vivo, tomato (cultivar: Ponderosa)
Details: for ratio of open stomata as compared to without the addition (student's t-test) / ratio of open stomata as compared to without the addition: 30 μM abscisic acid
Experimental: (§1) On Jun. 31, 2018, a seedling pot (Bee pot Y-55, manufactured by CANELON C.E) was filled with the culture soil, Kumiai Gardening Seedling Culture Soil AISAI No. 1 (manufactured by Katakura & Co-op Agri Corporation), to be level with the upper side of the pot. Two seeds of tomato (cultivar: Ponderosa) were planted in each pot, and the seedling pot was placed in a climate chamber (25° C., dark period/bright period: 11 h/13 h, bright period: 6:00 a.m. to 19:00 p.m.) at the Cultivation Research Center of OAT Agrio Co., Ltd. Water was supplied from the bottom of the pot, and plants were selected at the time of cotyledon development. At 8:30 a.m. on August 21, chemical solutions each prepared by dissolving 100 ppm of Tween (registered trademark) 80, 30 μM of abscisic acid, and 0 (Comparative Example 12), 100, 300, or 500 μM of steviol were sprayed evenly onto above-ground parts of crops grown to a plant age of about 4 in leaf number. At 11:30 a.m. and 16:00 p.m. on the same day, stomata on the underside of the top leaflet of the second leaf of crops were sampled on a cover glass with an instant adhesive (instant bond for general use AronAlpha (registered trademark) manufactured by TOAGOSEI CO., LTD.) thereon to prepare samples for stomatal observation. These samples were observed under a microscope (magnification 1,000×) to count the number of open or closed stomata in 100 or more stomata, and the ratio of open stomata was calculated according to the following equation:
ratio (%) of open stomata=100×(number of open stomata)/(total number of investigated stomata) (Equation)
(§2) The investigations were made in quadruplicate for each treatment condition. A significance test was performed by student's t-test on the ratio of open stomata obtained from the investigation of each individual plant against the ratio of open stomata obtained for the plot without the addition of steviol (0 μm: Comparative Example 12).
as §1, with “Feb. 27,” for “Jun. 31,”, “March 15,” for “August 21,”, “13),” for “12), 100,”, “stevioside” for “steviol”, “3” for “4”, “equation: […]” for “equation:”
as §2, with “stevioside” for “steviol”, “13).” for “12).”
On Mar. […]

[1] = 100 μM with 30 μM abscisic acid, sprayed 8:30, Time (11:30)
[2] = 300 μM with 30 μM abscisic acid, sprayed 8:30, Time (11:30)
[3] = 500 μM with 30 μM abscisic acid, sprayed 8:30, Time (11:30)
[4] = every addition concentration (100, 300, 500 μM) and every investigation time
[5] = 300 μM with 30 μM abscisic acid, sprayed 8:30, Time (16:00)
[6] = 500 μM with 30 μM abscisic acid, sprayed 8:30, Time (16:00)

| SMILES | Ratio (%) of Open Stomata [1] [%] | Ratio (%) of Open Stomata (100 μM with 30 μM abscisic acid, sprayed 8:30, Time (16:30)) [%] | Ratio (%) of Open Stomata [2] [%] | Ratio (%) of Open Stomata (300 μM with 30 μM abscisic acid, sprayed 8:30, Time (16:30)) [%] | Ratio (%) of Open Stomata [3] [%] | Ratio (%) of Open Stomata (500 μM with 30 μM abscisic acid, sprayed 8:30, Time (16:30)) [%] | ratio of open stomata as compared to without the addition (student's t-test) (300 and 500 μM) | ratio of open stomata as compared to without the addition [4] | Ratio (%) of Open Stomata (100 μM with 30 μM abscisic acid, sprayed 8:30, Time (16:00)) [%] | Ratio (%) of Open Stomata [5] [%] | Ratio (%) of Open Stomata [6] [%] | ratio of open stomata as compared to without the addition (student's t-test) [4] | ratio of open stomata as compared to without the addition (student's t-test) (addition concentrations and investigation times other than 500 μM at 11:30 a.m.) | ratio of open stomata as compared to without the addition (every addition concentration (300, 500 μM) and every investigation time) |
| --- | --- | --- | --- | --- | --- | --- | --- | --- | --- | --- | --- | --- | --- | --- |
| C=C1C[C@@]23CC[C@H]4[C@@](C)(CCC[C@@]4(C)C(=O)O[C@@H]4O[C@H](CO)[C@@H](O)[C@H](O)[C@H]4O)[C@@H]2CC[C@]1(O[C@@H]1O[C@H](CO)[C@@H](O)[C@H](O[C@@H]2O[C@H](CO)[C@@H](O)[C@H](O)[C@H]2O)[C@H]1O[C@@H]1O[C@H](CO)[C@@H](O)[C@H](O)[C@H]1O)C3 [rebaudioside A] | 56.6 ± 5.8 | 50.0 ± 3.2 | 58.6 ± 4.6 | 51.2 ± 2.1 | 56.5 ± 3.8 | 54.0 ± 6.6 | statistically significant improvement in the ratio of open stomata | an improvement in the ratio of open stomata | – | – | – | – | – | – |
| C=C1C[C@@]23CC[C@H]4[C@@](C)(CCC[C@@]4(C)C(=O)O)[C@@H]2CC[C@]1(O)C3 [steviol] | 69.0 ± 5.5 | – | 62.7 ± 2.5 | – | 60.1 ± 7.5 | – | – | – | 69.3 ± 3.5 | 61.9 ± 4.6 | 62.5 ± 6.8 | statistically significant improvement in the ratio of open stomata | – | – |
| C=C1C[C@@]23CC[C@H]4[C@@](C)(CCC[C@@]4(C)C(=O)O[C@@H]4O[C@H](CO)[C@@H](O)[C@H](O)[C@H]4O)[C@@H]2CC[C@]1(O[C@@H]1O[C@H](CO)[C@@H](O)[C@H](O)[C@H]1O[C@@H]1O[C@H](CO)[C@@H](O)[C@H](O)[C@H]1O)C3 [stevioside] | – | – | 65.1 ± 6.4 | – | 45.7 ± 2.7 | – | – | – | – | 58.0 ± 4.2 | 54.6 ± 3.8 | – | statistically significant improvement in the ratio of open stomata | an improvement in the ratio of open stomata |
